Reference: patent US11572399B2, “Long-acting GIP peptide analogues” (University of Copenhagen, priority 2017, dated 2023)
Peptide text beside a SMILES is read from it. * marks the point of attachment. C16 diacid = O=C(O)CCCCCCCCCCCCCCC(=O)*

Target: T1, human GIP receptor (Homo sapiens, UniProt P48546)
T1 construct: host or cells: COS-7, transient transfection (calcium phosphate), cDNA in pCMV-Script
T1 sequence (P48546 22-466): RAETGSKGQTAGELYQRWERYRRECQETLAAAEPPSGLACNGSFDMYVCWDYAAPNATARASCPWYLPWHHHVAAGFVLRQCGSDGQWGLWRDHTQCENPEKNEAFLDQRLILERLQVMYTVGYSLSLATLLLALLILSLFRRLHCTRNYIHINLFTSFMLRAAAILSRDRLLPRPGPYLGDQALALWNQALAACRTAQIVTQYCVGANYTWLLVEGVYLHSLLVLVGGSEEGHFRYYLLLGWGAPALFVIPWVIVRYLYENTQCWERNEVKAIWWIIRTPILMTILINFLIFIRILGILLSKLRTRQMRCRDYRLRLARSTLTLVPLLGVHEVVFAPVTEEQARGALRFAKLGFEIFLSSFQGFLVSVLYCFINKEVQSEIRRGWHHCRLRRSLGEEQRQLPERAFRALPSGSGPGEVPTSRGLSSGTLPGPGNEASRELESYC
Test: cAMP accumulation assay, agonism (ligand alone)
Format: cell-based
Settings: COS-7 cells, Table 1; for Emax: COS-7, intrinsic cAMP activity; for EC50: read-out: cAMP agonism nM (EC50)
Method: COS-7 cells were cultured at 10% CO2 and 37° C. in Dulbecco's modified Eagle's medium 1885 supplemented with 10% fetal bovine serum, 2 mM glutamine, 180 units/ml penicillin, and 45 µg/ml streptomycin. Transient transfection of the COS-7 cells for cAMP accumulation and competition binding was performed using the calcium phosphate precipitation method with the addition of chloroquine^46-47.
Transient transfected COS-7 cells expressing the human GIP receptor were seeded in white 96-well plates with a density of 3.5*10^4/well. The day after, the cells were washed twice with Hepes buffered saline (HBS) buffer and incubated with HBS and 1 mM 3-isobutyl-1-methylxanthine (IBMX) for 30 min at 37° C. To test for agonistic properties, ligands were added and incubated for 30 min at 37° C. In order to test for antagonistic properties, the cells were preincubated with the antagonists for 10 min prior to the addition of the agonist and subsequent incubated for 20 additional min. The HitHunter™ cAMP XS assay (DiscoveRx) was carried out according to the manufacturer's instructions.
IC50, EC50, and Ki values were determined by nonlinear regression. These were carried out with the GraphPad Prism 6.0 software (GraphPad, San Diego, Calif., USA) and Microsoft Excel™. Ki values were based on the formula for one class of binding sites in homologous competition binding studies and the Cheng Prussoffs formula, respectively (DeBlasi et al., 1989). To determine the HSA binding potential, the fold change in affinity (as determined by IC50) was calculated as IC50 (plus HSA)/IC50 (minus HSA).

| Structure (SMILES) | Emax [%] | EC50 [nM] | cAMP agonism Emax (intrinsic cAMP activity) |
| --- | --- | --- | --- |
| CC[C@H](C)[C@H](NC(=O)[C@H](CO)NC(=O)[C@H](Cc1ccc(O)cc1)NC(=O)[C@H](CC(=O)O)NC(=O)[C@H](CO)NC(=O)[C@@H](NC(=O)[C@H](Cc1ccccc1)NC(=O)[C@@H](NC(=O)CNC(=O)[C@@H](N)CCC(=O)O)[C@@H](C)O)[C@@H](C)CC)C(=O)N[C@@H](C)C(=O)N[C@@H](CCSC)C(=O)N[C@@H](CC(=O)O)C(=O)N[C@@H](CCCCN)C(=O)N[C@H](C(=O)N[C@@H](Cc1c[nH]cn1)C(=O)N[C@@H](CCC(N)=O)C(=O)N[C@@H](CCC(N)=O)C(=O)N[C@@H](CC(=O)O)C(=O)N[C@@H](Cc1ccccc1)C(=O)N[C@H](C(=O)N[C@@H](CC(N)=O)C(=O)N[C@@H](Cc1c[nH]c2ccccc12)C(=O)N[C@@H](CC(C)C)C(=O)N[C@@H](CC(C)C)C(=O)N[C@@H](CCCCNC(=O)CCCCCCCCCCCCCCC(=O)O)C(=O)N[C@@H](CCC(N)=O)C(=O)N[C@@H](CCCCN)C(N)=O)C(C)C)[C@@H](C)CC [AT317, [hGIP(3-30)NH2[A28K]-C16diacid/28]] (H-EGTFISDYSIAMDKIHQQDFVNWLLK(C16 diacid)QK-NH2; N-terminus assumed) | 21.8 | 62 | – |
| CC[C@H](C)[C@H](NC(=O)[C@H](CO)NC(=O)[C@H](CCCCNC(=O)CCCCCCCCCCCCCCC(=O)O)NC(=O)[C@H](CC(=O)O)NC(=O)[C@H](CO)NC(=O)[C@@H](NC(=O)[C@H](Cc1ccccc1)NC(=O)[C@@H](NC(=O)CNC(=O)[C@@H](N)CCC(=O)O)[C@@H](C)O)[C@@H](C)CC)C(=O)N[C@@H](C)C(=O)N[C@@H](CCSC)C(=O)N[C@@H](CC(=O)O)C(=O)N[C@@H](CCCCN)C(=O)N[C@H](C(=O)N[C@@H](Cc1c[nH]cn1)C(=O)N[C@@H](CCC(N)=O)C(=O)N[C@@H](CCC(N)=O)C(=O)N[C@@H](CC(=O)O)C(=O)N[C@@H](Cc1ccccc1)C(=O)N[C@H](C(=O)N[C@@H](CC(N)=O)C(=O)N[C@@H](Cc1c[nH]c2ccccc12)C(=O)N[C@@H](CC(C)C)C(=O)N[C@@H](CC(C)C)C(=O)N[C@@H](C)C(=O)N[C@@H](CCC(N)=O)C(=O)N[C@@H](CCCCN)C(N)=O)C(C)C)[C@@H](C)CC [AT301, [hGIP(3-30)NH2[Y10K]-C16diacid/10]] (H-EGTFISDK(C16 diacid)SIAMDKIHQQDFVNWLLAQK-NH2; N-terminus assumed) | 8.5 | 12 | – |
| CC[C@H](C)[C@H](NC(=O)[C@H](CO)NC(=O)[C@H](Cc1ccc(O)cc1)NC(=O)[C@H](CC(=O)O)NC(=O)[C@H](CO)NC(=O)[C@@H](NC(=O)[C@H](Cc1ccccc1)NC(=O)[C@@H](NC(=O)CNC(=O)[C@@H](N)CCC(=O)O)[C@@H](C)O)[C@@H](C)CC)C(=O)N[C@@H](C)C(=O)N[C@@H](CCSC)C(=O)N[C@@H](CC(=O)O)C(=O)N[C@@H](CCCCN)C(=O)N[C@H](C(=O)N[C@@H](Cc1c[nH]cn1)C(=O)N[C@@H](CCC(N)=O)C(=O)N[C@@H](CCC(N)=O)C(=O)N[C@@H](CC(=O)O)C(=O)N[C@@H](Cc1ccccc1)C(=O)N[C@H](C(=O)N[C@@H](CCCCNC(=O)CCCCCCCCCCCCCCC(=O)O)C(=O)N[C@@H](Cc1c[nH]c2ccccc12)C(=O)N[C@@H](CC(C)C)C(=O)N[C@@H](CC(C)C)C(=O)N[C@@H](C)C(=O)N[C@@H](CCC(N)=O)C(=O)N[C@@H](CCCCN)C(N)=O)C(C)C)[C@@H](C)CC [AT313, [hGIP(3-30)NH2[N24K]-C16diacid/24]] (H-EGTFISDYSIAMDKIHQQDFVK(C16 diacid)WLLAQK-NH2; N-terminus assumed) | 7.2 | – | – |
| CC[C@H](C)[C@H](NC(=O)[C@H](CO)NC(=O)[C@H](Cc1ccc(O)cc1)NC(=O)[C@H](CC(=O)O)NC(=O)[C@H](CO)NC(=O)[C@@H](NC(=O)[C@H](Cc1ccccc1)NC(=O)[C@@H](NC(=O)CNC(=O)[C@H](CCC(=O)O)NC(=O)CCCCCCCCCCC(=O)O)[C@@H](C)O)[C@@H](C)CC)C(=O)N[C@@H](C)C(=O)N[C@@H](CCSC)C(=O)N[C@@H](CC(=O)O)C(=O)N[C@@H](CCCCN)C(=O)N[C@H](C(=O)N[C@@H](CCCNC(=N)N)C(=O)N[C@@H](CCC(N)=O)C(=O)N[C@@H](CCC(N)=O)C(=O)N[C@@H](CC(=O)O)C(=O)N[C@@H](Cc1ccccc1)C(=O)N[C@H](C(=O)N[C@@H](CC(N)=O)C(=O)N[C@@H](Cc1c[nH]c2ccccc12)C(=O)N[C@@H](CC(C)C)C(=O)N[C@@H](CC(C)C)C(=O)N[C@@H](C)C(=O)N[C@@H](CCC(N)=O)C(=O)N[C@@H](CCCNC(=N)N)C(N)=O)C(C)C)[C@@H](C)CC [AT149, [hGIP(3-30)NH2[H18R; K30R]-C12diacid/3]] | 50 | 24 | – |
| CCCCCCCCCCCCCC(=O)NCCCC[C@H](NC(=O)[C@H](CCC(N)=O)NC(=O)[C@H](C)NC(=O)[C@H](CC(C)C)NC(=O)[C@H](CC(C)C)NC(=O)[C@H](Cc1c[nH]c2ccccc12)NC(=O)[C@H](CC(N)=O)NC(=O)[C@@H](NC(=O)[C@H](Cc1ccccc1)NC(=O)[C@H](CC(=O)O)NC(=O)[C@H](CCC(N)=O)NC(=O)[C@H](CCC(N)=O)NC(=O)[C@H](Cc1c[nH]cn1)NC(=O)[C@@H](NC(=O)[C@H](CCCCN)NC(=O)[C@H](CC(=O)O)NC(=O)[C@H](CCSC)NC(=O)[C@H](C)NC(=O)[C@@H](NC(=O)[C@H](CO)NC(=O)[C@H](Cc1ccc(O)cc1)NC(=O)[C@H](CC(=O)O)NC(=O)[C@H](CO)NC(=O)[C@@H](NC(=O)[C@H](Cc1ccccc1)NC(=O)[C@@H](N)[C@@H](C)O)[C@@H](C)CC)[C@@H](C)CC)[C@@H](C)CC)C(C)C)C(N)=O [AT123, [hGIP(5-30)NH2—C14/30]] | 64 | – | – |
| CC[C@H](C)[C@H](NC(=O)[C@H](CO)NC(=O)[C@H](Cc1ccc(O)cc1)NC(=O)[C@H](CC(=O)O)NC(=O)[C@H](CO)NC(=O)[C@@H](NC(=O)[C@H](Cc1ccccc1)NC(=O)[C@@H](NC(=O)CNC(=O)[C@@H](N)CCC(=O)O)[C@@H](C)O)[C@@H](C)CC)C(=O)N[C@@H](C)C(=O)N[C@@H](CCSC)C(=O)N[C@@H](CC(=O)O)C(=O)N[C@@H](CCCCN)C(=O)N[C@H](C(=O)N[C@@H](Cc1c[nH]cn1)C(=O)N[C@@H](CCC(N)=O)C(=O)N[C@@H](CCCCNC(=O)CCCCCCCCCCCCCCC(=O)O)C(=O)N[C@@H](CC(=O)O)C(=O)N[C@@H](Cc1ccccc1)C(=O)N[C@H](C(=O)N[C@@H](CC(N)=O)C(=O)N[C@@H](Cc1c[nH]c2ccccc12)C(=O)N[C@@H](CC(C)C)C(=O)N[C@@H](CC(C)C)C(=O)N[C@@H](C)C(=O)N[C@@H](CCC(N)=O)C(=O)N[C@@H](CCCCN)C(N)=O)C(C)C)[C@@H](C)CC [AT309, [hGIP(3-30)NH2[Q20K]-C16diacid/20]] (H-EGTFISDYSIAMDKIHQK(C16 diacid)DFVNWLLAQK-NH2; N-terminus assumed) | – | – | no ag. |
| CCCCCCCCCCCCCC(=O)NCCCC[C@H](NC(=O)[C@H](CCC(N)=O)NC(=O)[C@H](C)NC(=O)[C@H](CC(C)C)NC(=O)[C@H](CC(C)C)NC(=O)[C@H](Cc1c[nH]c2ccccc12)NC(=O)[C@H](CC(N)=O)NC(=O)[C@@H](NC(=O)[C@H](Cc1ccccc1)NC(=O)[C@H](CC(=O)O)NC(=O)[C@H](CCC(N)=O)NC(=O)[C@H](CCC(N)=O)NC(=O)[C@H](Cc1c[nH]cn1)NC(=O)[C@@H](NC(=O)[C@H](CCCCN)NC(=O)[C@H](CC(=O)O)NC(=O)[C@H](CCSC)NC(=O)[C@H](C)NC(=O)[C@@H](NC(=O)[C@H](CO)NC(=O)[C@H](Cc1ccc(O)cc1)NC(=O)[C@H](CC(=O)O)NC(=O)[C@H](CO)NC(=O)[C@@H](NC(=O)[C@H](Cc1ccccc1)NC(=O)[C@@H](NC(=O)CNC(=O)[C@@H](N)CCC(=O)O)[C@@H](C)O)[C@@H](C)CC)[C@@H](C)CC)[C@@H](C)CC)C(C)C)C(N)=O [AT112, [hGIP(3-30)NH2—C14/30]] | 29 | – | – |
| CCCCCCCCCCCCCCCCCC(=O)NCCCC[C@H](NC(=O)[C@H](CCC(N)=O)NC(=O)[C@H](C)NC(=O)[C@H](CC(C)C)NC(=O)[C@H](CC(C)C)NC(=O)[C@H](Cc1c[nH]c2ccccc12)NC(=O)[C@H](CC(N)=O)NC(=O)[C@@H](NC(=O)[C@H](Cc1ccccc1)NC(=O)[C@H](CC(=O)O)NC(=O)[C@H](CCC(N)=O)NC(=O)[C@H](CCC(N)=O)NC(=O)[C@H](Cc1c[nH]cn1)NC(=O)[C@@H](NC(=O)[C@H](CCCCN)NC(=O)[C@H](CC(=O)O)NC(=O)[C@H](CCSC)NC(=O)[C@H](C)NC(=O)[C@@H](NC(=O)[C@H](CO)NC(=O)[C@H](Cc1ccc(O)cc1)NC(=O)[C@H](CC(=O)O)NC(=O)[C@H](CO)NC(=O)[C@@H](NC(=O)[C@H](Cc1ccccc1)NC(=O)[C@@H](NC(=O)CNC(=O)[C@@H](N)CCC(=O)O)[C@@H](C)O)[C@@H](C)CC)[C@@H](C)CC)[C@@H](C)CC)C(C)C)C(N)=O [AT115, [hGIP(3-30)NH2—C18/30]] | – | 134 | – |
